Measurements reported in US8933113B2 (Merck Sharp & Dohme Corp., priority 2011, dated 2015).

The molecules below were run against T1, full-length human Mineralocorticoid Receptor (MR) (Homo sapiens, UniProt P08235) (assay: human MR NH Pro assay (PathHunter Protein:Protein interaction assay), MR antagonist activity). Conditions: PathHunter CHO-K1 cells overexpressing human MR; aldosterone about 0.3 nM; 6 hours at 37° C.; luminescence; read-out: Primary Assay IP rating (IP = inflection point for a given dose-response titration curve).
T1 construct: host or cells: PathHunter CHO-K1 cells
T1 sequence (P08235 1-984): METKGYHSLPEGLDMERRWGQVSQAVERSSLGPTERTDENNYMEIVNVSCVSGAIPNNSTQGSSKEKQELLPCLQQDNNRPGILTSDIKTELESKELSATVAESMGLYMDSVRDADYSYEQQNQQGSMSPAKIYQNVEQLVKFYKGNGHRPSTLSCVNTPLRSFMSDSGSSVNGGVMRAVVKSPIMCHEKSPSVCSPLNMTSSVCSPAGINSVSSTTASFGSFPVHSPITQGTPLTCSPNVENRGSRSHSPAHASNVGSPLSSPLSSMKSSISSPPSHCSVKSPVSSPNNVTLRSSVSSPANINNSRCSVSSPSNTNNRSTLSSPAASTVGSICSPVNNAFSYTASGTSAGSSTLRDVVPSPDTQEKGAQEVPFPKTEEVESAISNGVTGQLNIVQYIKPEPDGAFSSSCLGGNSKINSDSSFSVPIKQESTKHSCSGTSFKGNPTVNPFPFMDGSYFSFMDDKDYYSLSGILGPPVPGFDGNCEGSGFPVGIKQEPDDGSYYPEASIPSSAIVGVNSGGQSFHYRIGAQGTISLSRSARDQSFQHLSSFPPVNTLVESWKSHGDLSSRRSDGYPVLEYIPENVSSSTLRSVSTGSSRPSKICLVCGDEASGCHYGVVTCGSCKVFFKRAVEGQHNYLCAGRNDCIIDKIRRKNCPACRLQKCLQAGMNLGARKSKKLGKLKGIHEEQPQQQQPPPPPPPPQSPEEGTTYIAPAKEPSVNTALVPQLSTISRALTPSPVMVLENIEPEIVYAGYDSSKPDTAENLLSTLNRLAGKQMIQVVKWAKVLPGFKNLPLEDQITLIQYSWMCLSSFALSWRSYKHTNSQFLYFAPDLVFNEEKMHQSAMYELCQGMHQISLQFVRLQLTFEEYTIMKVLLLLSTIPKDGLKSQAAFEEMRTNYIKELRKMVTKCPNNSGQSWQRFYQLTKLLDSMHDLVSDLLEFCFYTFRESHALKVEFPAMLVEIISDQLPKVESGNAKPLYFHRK
Assay type: cell-based
From the text: The activity of the compounds of the present invention regarding mineralocorticoid receptor antagonism can be evaluated using the following assay.
Assessment of MR Potency in HMR NH Pro Assay
The human MR NH Pro assay is a commercially available PathHunter™ Protein:Protein interaction assay (DiscoveRx; http://www.discoverx.com/nhrs/prod-nhrs.php) that measures the ability of compounds to antagonize full-length human Mineralocorticoid Receptor (MR) binding to a coactivator peptide.
6. Test compounds are titrated starting at 4.4 mM, 10-point titration in 1:3 dilution.
3. Add 5 μL 6× agonist (final aldosterone concentration should be about 0.3 nM to about 1.0 nM) to all wells (using the PlateMate Plus.)
• (ThermoFisher) (except those wells in columns 23 and 24) 4. Add 5 uL of assay media to all wells in column 23 and 24. 5. Incubate 6 hrs at 37° C., 5% CO2. 6. Add 15 uL 3× DiscoveRx detection reagent to each well. 7. Incubate 1 hour at room temperature (keep plates stored in the dark). 8. Read plates on Envision (PerkinElmer) luminesence plate reader and analyze using ADA.

Row | Structure (SMILES) | IC50
1 | CCC(C(=O)NCC(=O)OC)(c1ccc(Cl)cc1)n1ccc2c(NS(C)(=O)=O)cccc21 (stereo not drawn) [Compound 52, methyl N-[2-(4-chlorophenyl)-2-{4-[(methylsulfonyl)amino]-1H-indol-1-yl}butanoyl]glycinate] | 100 to 500 nM
2 | CCC(CCC(=O)OC)(c1ccc(Cl)cc1)n1ccc2c(NS(C)(=O)=O)cccc21 (stereo not drawn) [Compound 167, Methyl 4-(4-chlorophenyl)-4-(4-(methylsulfonamido)-1H-indol-1-yl)hexanoate] | < 100 nM
3 | COC(=O)C(c1cccc(Br)c1)n1ccc2c([N+](=O)[O-])cccc21 (stereo not drawn) [Compound 4, methyl (3-bromophenyl)(4-nitro-1H-indol-1-yl)acetate] | 500 to 5000 nM
4 | CCC(C(C)=O)(c1ccc(Cl)cc1)n1ncc2c(NS(=O)(=O)NC)cccc21 (stereo not drawn) [Compound 105] | < 100 nM
5 | CCC(c1ccc(Cl)cc1)(c1nc(C(N)=O)no1)n1ncc2c(NS(C)(=O)=O)cccc21 (stereo not drawn) [Compound 157, 5-(1-(4-chlorophenyl)-1-(4-(methylsulfonamido)-1H-indazol-1-yl)propyl)-1,2,4-oxadiazole-3-carboxamide] | 100 to 500 nM
6 | COC(=O)C(c1ccc(Cl)cc1)n1ccc2c([N+](=O)[O-])cccc21 (stereo not drawn) [Compound 1, methyl (4-chlorophenyl)(4-nitro-1H-indol-1-yl)acetate] | 500 to 5000 nM
7 | COC(=O)C(C)(c1ccc(Cl)cc1Cl)n1ccc2c(NS(C)(=O)=O)cccc21 (stereo not drawn) [Compound 29, Methyl 2-(2,4-dichlorophenyl)-2-{4-[(methylsulfonyl)amino]-1H-indol-1-yl}propanoate] | 500 to 5000 nM
8 | CCC(c1ccc(Cl)cc1)(C(C)O)n1ncc2c(NS(=O)(=O)N(C)C)cccc21 (stereo not drawn) [Compound 119, 3-(1-(3-(4-chlorophenyl)-2-hydroxypentan-3-yl)-1H-indazol-4-yl)-1,1-dimethyl-sulfonylurea] | < 100 nM
9 | CCC(c1ccc(Cl)cc1)(C(C)O)n1ccc2c(NS(C)(=O)=O)cccc21 (single isomer, unassigned) [Compound 109, N-(1-(3-(4-chlorophenyl)-2-hydroxypentan-3-yl)-1H-indol-4-yl)methanesulfonamide] | < 100 nM
10 | CCC(CCC#N)(c1ccc(Cl)cc1)n1ncc2c(NS(C)(=O)=O)cccc21 (single isomer, unassigned) [Compound 138, N-(1-(3-(4-chlorophenyl)-1-cyanopentan-3-yl)-1H-indazol-4-yl)methanesulfonamide] | < 100 nM
11 | CCC(CO)(c1ccc(Cl)cc1Cl)n1ccc2c(NS(C)(=O)=O)cccc21 (stereo not drawn) [Compound 87, N-(1-(2-(2,4-dichlorophenyl)-1-hydroxybutan-2-yl)-1H-indol-4-yl)methane sulfonamide] | 100 to 500 nM
12 | CNC(=O)C(CC1CC1)(c1ccc(Cl)cc1)n1ccc2c(NS(C)(=O)=O)cccc21 (stereo not drawn) [Compound 56, 2-(4-chlorophenyl)-3-cyclopropyl-N-methyl-2-{4-[(methylsulfonyl)amino]-1H-indol-1-yl}propanamide] | 100 to 500 nM
13 | CC[C@@](c1ccc(Cl)cc1)(c1nc(-c2ccccc2)n[nH]1)n1ccc2c(NS(C)(=O)=O)cccc21 [Compound 64, (R)—N-{1-[1-(4-chlorophenyl)-1-(3-phenyl-1H-1,2,4-triazol-5-yl)propyl]-1H-indol-4-yl}methanesulfonamide] | 500 to 5000 nM
14 | COC(=O)C(c1ccc(F)cc1Cl)n1ccc2cc(Cl)ccc21 (stereo not drawn) [Compound 12, methyl (2-chloro-4-fluorophenyl)(5-chloro-1H-indol-1-yl)acetate] | 500 to 5000 nM
15 | CCC(/C=C/C#N)(c1ccc(Cl)cc1)n1ccc2c(NS(C)(=O)=O)cccc21 (stereo not drawn) [Compound 127, (E)-N-(1-(3-(4-chlorophenyl)-1-cyanopent-1-en-3-yl)-1H-indol-4-yl)methanesulfonamide] | < 100 nM
16 | CNC(=O)C(CC#N)(c1ccc(Cl)cc1)n1ccc2c(NS(C)(=O)=O)cccc21 (stereo not drawn) [Compound 53, 2-(4-chlorophenyl)-3-cyano-N-methyl-2-{4-[(methylsulfonyl)amino]-1H-indol-1-yl}propanamide] | 100 to 500 nM
17 | CCC(c1ccc(Cl)cc1)(c1nc(C#N)no1)n1ncc2c(NS(C)(=O)=O)cccc21 (stereo not drawn) [Compound 158, N-(1-(1-(4-chlorophenyl)-1-(3-cyano-1,2,4-oxadiazol-5-yl)propyl)-1H-indazol-4-yl)methane sulfonamide] | < 100 nM
18 | COC(=O)C(c1ccc(F)cc1Cl)n1ccc2cccc(OCc3ccccc3)c21 (stereo not drawn) [Compound 16, methyl [7-(benzyloxy)-1H-indol-1-yl](2-chloro-4-fluorophenyl)acetate] | 500 to 5000 nM

Further lines, results first:

Row | IC50 | Structure (SMILES)
19 | 100 to 500 nM | CCC(C(=O)OC)(c1ccc(Cl)cc1Cl)n1ccc2c(NS(C)(=O)=O)cccc21 (stereo not drawn) [Compound 30, Methyl 2-(2,4-dichlorophenyl)-2-{4-[(methylsulfonyl)amino]-1H-indol-1-yl}butanoate]
20 | < 100 nM | CCC(CCC#N)(c1ccc(Cl)cc1)n1ccc2c(NS(C)(=O)=O)cccc21 (single isomer, unassigned) [Compound 140, N-(1-(3-(4-chlorophenyl)-1-cyanopentan-3-yl)-1H-indol-4-yl)methanesulfonamide]
21 | 100 to 500 nM | CCC(c1ccc(Cl)cc1)(C(O)COC)n1ccc2c(NS(C)(=O)=O)cccc21 (stereo not drawn) [Compound 173, N-(1-(3-(4-chlorophenyl)-2-hydroxy-1-methoxypentan-3-yl)-1H-indol-4-yl)methanesulfonamide]
22 | 100 to 500 nM | CCC(c1ccc(Cl)cc1)(c1nnc(-c2ccc(OC)cc2)o1)n1ccc2c(NS(C)(=O)=O)cccc21 (stereo not drawn) [Compound 74, N-(1-{1-(4-chlorophenyl)-1-[5-(4-methoxyphenyl)-1,3,4-oxadiazol-2-yl]propyl}-1H-indol-4-yl)methanesulfonamide]
23 | < 100 nM | CCC(c1ccc(Cl)cc1)(C(C)O)n1ccc2c(NS(C)(=O)=O)cccc21 (single isomer, unassigned) [Compound 108, N-(1-(3-(4-chlorophenyl)-2-hydroxypentan-3-yl)-1H-indol-4-yl)methanesulfonamide]
24 | 500 to 5000 nM | CC(C)(C)OC(=O)C(c1ccc(Cl)cc1)n1ccc2c(NS(C)(=O)=O)cccc21 (stereo not drawn) [Compound 18, tert-butyl (4-chlorophenyl){4-[(methylsulfonyl)amino]-1H-indol-1-yl}acetate]
25 | 500 to 5000 nM | COC(=O)C(c1ccc(Br)cc1)n1ccc2c(NS(C)(=O)=O)cccc21 (stereo not drawn) [Compound 24, methyl (4-bromophenyl){4-[(methylsulfonyl)amino]-1H-indol-1-yl}acetate]
26 | 100 to 500 nM | CCC(CN)(c1ccc(Cl)cc1)n1ccc2c(NS(C)(=O)=O)cccc21 (stereo not drawn) [Compound 177, N-(1-(1-amino-2-(4-chlorophenyl)butan-2-yl)-1H-indol-4-yl)methanesulfonamide]
27 | 100 to 500 nM | CCC(c1ccc(Cl)cc1)(c1nnc(C)o1)n1ccc2c(NS(C)(=O)=O)cccc21 (stereo not drawn) [Compound 68, N-{1-[1-(4-chlorophenyl)-1-(5-methyl-1,3,4-oxadiazol-2-yl)propyl]-1H-indol-4-yl}methanesulfonamide]
28 | < 100 nM | CCC(/C=C/C#N)(c1ccc(OC)cc1)n1ccc2c(NS(C)(=O)=O)cccc21 (stereo not drawn) [Compound 128, (E)-N-(1-(1-cyano-3-(4-methoxyphenyl)pent-1-en-3-yl)-1H-indol-4-yl)methanesulfonamide]
29 | < 100 nM | CCC(CCO)(c1ccc(Cl)cc1)n1ccc2c(NS(C)(=O)=O)cccc21 (single isomer, unassigned) [Compound 160, N-(1-(3-(4-Chlorophenyl)-1-hydroxypentan-3-yl)-1H-indol-4-yl)methanesulfonamide]
30 | 100 to 500 nM | CCC(c1ccc(Cl)cc1)(c1nnc(C(F)(F)F)o1)n1ccc2c(NS(C)(=O)=O)cccc21 (stereo not drawn) [Compound 69, N-(1-{1-(4-chlorophenyl)-1-[5-(trifluoromethyl)-1,3,4-oxadiazol-2-yl]propyl}-1H-indol-4-yl)methanesulfonamide]
